Data published in US12091405B2, “Substituted pyrazole compounds as indoleamine 2,3-dioxygenase inhibitors” (Merck Sharp & Dohme LLC, priority 2018, dated 2024).

Assays:
IDO1 [1] = molecular target: T1, IDO1 (Homo sapiens, UniProt P14902); assay: IDO1 Cellular Assay in HeLa Cells Stimulated with IFNγ; format: cell-based; conditions: IFNγ 100 ng/mL, 300 uM L-tryptophan, about 48 hours, fluorescence readout, read-out: IDO1 HELA Cell Assay, IC50
IDO1 [2] = molecular target: T1, IDO1; assay: IDO1 Human Whole Blood Assay; format: cell-based; design: Human whole blood was drawn in sodium heparin coated tubes from healthy internal donors; from tissue; host or cells: human whole blood from healthy donors, stimulated with LPS and IFNγ; conditions: LPS and IFNγ 100 ng/mL, overnight (18 h), kynurenine by LC/MS/MS
Protocol: IDO1 Human Whole Blood Assay
Compounds to be tested were serially diluted in ten 3-fold steps in DMSO starting from 10 mM. 3 μL of compound dilutions or DMSO alone were then dispensed from the dilution plate into a polypropylene 96-well assay plate containing 97 μL of RPMI medium using an Echo 555 acoustic liquid handler (Labcyte). LPS and IFNγ was prepared in RPMI medium to a 10× of final conc. (1000 ng/mL), final concentration is 100 ng/mL.
Human whole blood was drawn in sodium heparin coated tubes from healthy internal donors. 240 μL of blood was transferred to each of the wells of a v-bottom 96 well plate. 30 μL of compound was transferred from intermediate dilution plate, and incubated for 15 min. 30 μL from stimulants was then transferred to blood and mixed thoroughly. Plate was covered with breathable membrane and incubated at 37° C. for overnight (18 h).
On day 2, isotope labeled standard solutions of kynurenine and tryptophan was made in water at 10× concentration and 30 μL was added to the blood at 3 μM final concentration. The assay plates were centrifuged at 300×G for 10 min with no brake to separate plasma from red blood cells. 60 μL of plasma samples was removed without disturbing red blood cells. Plasma was diluted with RPMI in 1:1 ratio and proteins were precipitated out with two volumes of Acetonitrile. The plates were centrifuged at 4000×G for 60 min. 20 μL of supernatant was carefully transferred to a 384 well plate containing 40 μL of 0.1% formic acid in water and analyzed by LC/MS/MS.
LC/MS/MS analyses were performed using Thermo Fisher's LX4-TSQ Quantum Ultra system. This system consists of four Agilent binary high-performance liquid chromatography (HPLC) pumps and a TSQ Quantum Ultra triple quadrupole MS/MS instrument. For each sample, 5 μL were injected onto an Atlantis T3 column (2.1 mm×150 mm, 3 μm particle size) from Waters. The mobile phase gradient pumped at 0.8 mL/min was used to elute the analytes from the column at 25 EC. The elution started at 0% B increasing linearly to 25% B at 6.5 min, holding at 25% for 1 min, re-equilibrating to 10 min. Mobile phase A consisted of 0.1% formic acid in water. Mobile phase B consisted of 0.1% of formic acid in acetonitrile. Data were acquired in positive mode using a HESI interface. The operational parameters for the TSQ Quantum Ultra instrument were a spray voltage of 4000 V, capillary temperature of 380° C., vaporizer temperature 400° C., shealth gas 60 arbitrary units, Aux gas 20 arbitrary units, tube lens 85 and collision gas 1.2 mTorr. SRM chromatograms of kynurenine (Qi: 209.2>Q3:94.0) and internal standard (Qi: 215.3>Q3:98.2) were collected for 90 sec. The peak area was integrated by Xcalibur Quan software. The ratios between the kynurenine generated in the reaction and 2D6-Kynurenine spiked-in internal standard were used to generate percentage inhibition and IC50 values. Compounds were titrated and IC50's were calculated by 4 parameter sigmoidal curve fitting formula.
The biological activity data of selective compounds using the IDO1 human whole blood assay described above are summarized in the table below.

T1 sequence (P14902 whole entry): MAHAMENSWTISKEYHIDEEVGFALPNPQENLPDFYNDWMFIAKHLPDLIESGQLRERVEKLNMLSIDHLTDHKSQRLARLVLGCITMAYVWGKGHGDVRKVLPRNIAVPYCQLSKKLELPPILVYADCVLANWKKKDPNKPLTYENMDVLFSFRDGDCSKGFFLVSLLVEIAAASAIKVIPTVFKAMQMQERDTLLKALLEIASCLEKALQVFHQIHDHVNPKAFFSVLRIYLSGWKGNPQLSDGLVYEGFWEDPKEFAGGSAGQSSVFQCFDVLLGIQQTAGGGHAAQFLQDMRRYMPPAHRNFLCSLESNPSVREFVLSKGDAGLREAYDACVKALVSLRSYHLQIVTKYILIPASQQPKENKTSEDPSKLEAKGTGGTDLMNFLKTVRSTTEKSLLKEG

| SMILES | IC50 (IDO1 [1]) [nM] | IC50 (IDO1 [2]) [nM] |
| --- | --- | --- |
| Cc1cccc(C2CCN(C(=O)Cn3nc(C(=O)N4C[C@@H](C)O[C@@H](C)C4)c4c3CCC4)CC2)c1 [Example 65, 2-(3-((2S,6R)-2,6-dimethylmorpholine-4-carbonyl)-5,6-dihydrocyclopenta [c]pyrazol-1(4H)-yl)-1-(4-(m-tolyl)piperidin-1-yl)ethanone] | 15.8 | 652 |
| Cc1c(C2CCN(C(=O)Cn3nc(C(=O)N4C[C@@H](C)O[C@@H](C)C4)c4c3CCC4)CC2)cccc1C(F)(F)F [Example 83, 2-{3-[(2R,6S)-2,6-dimethylmorpholine-4-carbonyl]-5,6-dihydrocyclopenta[c]pyrazol-1(4H)-yl}-1-{4-[2-methyl-3-(trifluoromethyl)phenyl]piperidin-1-yl}ethan-1-one] | 4.2 | 1850 |
| Cc1cccc(C2(F)CCN(C(=O)Cn3nc(C(=O)N4CCC(O)CC4)c4c3CCC4)CC2)c1C [Example 9, 1-(4-(2,3-dimethylphenyl)-4-fluoropiperidin-1-yl)-2-(3-(4-hydroxypiperidine-1-carbonyl)-5,6-dihydrocyclopenta[c]pyrazol-1(4H)-yl)ethanone] | 11.1 | 3370 |
| Cc1cccc(C2CCN(C(=O)Cn3nc(C(=O)N4CCC(O)CC4)c4c3CCC4)CC2(F)F)c1C (single isomer, unassigned) [Example 14, 1-(4-(2,3-dimethylphenyl)-3,3-difluoropiperidin-1-yl)-2-(3-(4-hydroxypiperidine-1-carbonyl)-5,6-dihydrocyclopenta[c]pyrazol-1(4H)-yl)ethanone] | 3.4 | 1390 |
| Cc1cccc(C2CCN(C(=O)Cn3nc(C(=O)N4CC[C@H](O)[C@H](F)C4)c4c3CCC4)CC2)c1C (single isomer, unassigned) [Example 61, 1-(4-(2,3-dimethylphenyl)piperidin-1-yl)-2-(3-((3R,4S or 3S, 4R)-3-fluoro-4-hydroxypiperidine-1-carbonyl)-5,6-dihydrocyclopenta[c]pyrazol-1(4H)-yl)ethanone] | 3.7 | 545 |
| Cc1cccc(C2CCN(C(=O)Cn3nc(C(=O)N4CCO[C@H](CO)C4)c4c3CCC4)CC2)c1C [Example 43, (S)-1-(4-(2,3-dimethylphenyl)piperidin-1-yl)-2-(3-(2-(hydroxymethyl)morpholine-4-carbonyl)-5,6-dihydrocyclopenta[c]pyrazol-1(4H)-yl) ethanone] | 5.5 | 192 |
| Cc1ccccc1C1CCN(C(=O)Cn2nc(C(=O)N3C[C@@H](C)O[C@@H](C)C3)c3c2CCC3)CC1 [Example 62, 2-(3-((2S,6R)-2,6-dimethylmorpholine-4-carbonyl)-5,6-dihydrocyclopenta[c]pyrazol-1(4H)-yl)-1-(4-(o-tolyl)piperidin-1-yl)ethan-1-one] | 9.8 | 475 |
| Cc1cccc(C2CCN(C(=O)Cn3nc(C(=O)N4CCN(C(=O)CO)CC4)c4c3CCCC4)CC2)c1C [Example 42, 1-(4-(2,3-dimethylphenyl)piperidin-1-yl)-2-(3-(4-(2-hydroxyacetyl)piperazine-1-carbonyl)-4,5,6,7-tetrahydro-1H-indazol-1-yl)ethanone] | 3.7 | 304 |
| Cc1cccc(C2CCN(C(=O)Cn3nc(C(=O)N4CC[C@H](O)[C@@H](F)C4)c4c3CCC4)CC2)c1C [Example 37, 1-(4-(2,3-dimethylphenyl)piperidin-1-yl)-2-(3-((3S,4S)-3-fluoro-4-hydroxypiperidine-1-carbonyl)-5,6-dihydrocyclopenta[c]pyrazol-1(4H)-yl)ethanone] | 1.8 | 84.9 |

Second part, the molecule after the results:

| IC50 (IDO1 [1]) [nM] | IC50 (IDO1 [2]) [nM] | SMILES |
| --- | --- | --- |
| 1.8 | 258 | Cc1cccc(C2CCN(C(=O)Cn3nc(C(=O)N4CC[C@H](O)[C@H](F)C4)c4c3C[C@H]3C[C@@H]43)CC2)c1C [Example 26, 1-[4-(2,3-dimethylphenyl)piperidin-1-yl]-2-{(3bR,4aR)-3-[(3R,4S)-3-fluoro-4-hydroxypiperidine-1-carbonyl]-3b,4,4a,5-tetrahydro-1H-cyclopropa[3,4]cyclopenta[1,2-c]pyrazol-1-yl}ethan-1-one] |
| 1.3 | 221 | Cc1cccc(C2CCN(C(=O)Cn3nc(C(=O)N4CC[C@@H](O)[C@@H](F)C4)c4c3CCCC4)CC2)c1C [Example 35, 1-(4-(2,3-dimethylphenyl)piperidin-1-yl)-2-(3-((3S,4R)-3-fluoro-4-hydroxypiperidine-1-carbonyl)-4,5,6,7-tetrahydro-1H-indazol-1-yl) ethanone] |
| 1.1 | 30.9 | Cc1cccc(C2CCN(C(=O)Cn3nc(C(=O)N4CCC(OCCO)CC4)c4c3CCC4)CC2)c1C [Example 33, 1-(4-(2,3-dimethylphenyl)piperidin-1-yl)-2-(3-(4-(2-hydroxyethoxy)piperidine-1-carbonyl)-5,6-dihydrocyclopenta[c]pyrazol-1(4H)-yl) ethanone] |
| 1.6 | 50.8 | Cc1cccc(C2CCN(C(=O)Cn3nc(C(=O)N4CCC(O)(CF)CC4)c4c3CCCC4)CC2)c1C [Example 36, 1-(4-(2,3-dimethylphenyl)piperidin-1-yl)-2-(3-(4-(fluoromethyl)-4-hydroxypiperidine-1-carbonyl)-4,5,6,7-tetrahydro-1H-indazol-1-yl) ethanone] |
| 0.9 | 53.3 | Cc1cccc(C2CCN(C(=O)Cn3nc(C(=O)N4CC[C@H](O)[C@H](C)C4)c4c3C[C@H]3C[C@@H]43)CC2)c1C [Example 20, 1-[4-(2,3-dimethylphenyl)piperidin-1-yl]-2-{(3bR,4aR)-3-[(3R,4S)-4-hydroxy-3-methylpiperidine-1-carbonyl]-3b,4,4a,5-tetrahydro-1H-cyclopropa[3,4]cyclopenta[1,2-c]pyrazol-1-yl}ethan-1-one] |
| 1.1 | 69.1 | Cc1cccc(C2CCN(C(=O)Cn3nc(C(=O)N4CC[C@@H](O)[C@@H](C)C4)c4c3C[C@H]3C[C@@H]43)CC2)c1C [Example 22, 1-[4-(2,3-dimethylphenyl)piperidin-1-yl]-2-{(3bR,4aR)-3-[(3S,4R)-4-hydroxy-3-methylpiperidine-1-carbonyl]-3b,4,4a,5-tetrahydro-1H-cyclopropa[3,4]cyclopenta[1,2-c]pyrazol-1-yl}ethan-1-one] |
| 1.1 | 296 | Cc1cccc(C2CCN(C(=O)Cn3nc(C(=O)N4C[C@@H](C)O[C@@H](C)C4)c4c3CCC4)CC2)c1C [Example 64, 2-(3-((2S,6R)-2,6-dimethylmorpholine-4-carbonyl)-5,6-dihydrocyclopenta [c]pyrazol-1(4H)-yl)-1-(4-(2,3-dimethylphenyl)piperidin-1-yl) ethanone] |
| 0.8 | 83.7 | Cc1cccc(C2CCN(C(=O)Cn3nc(C(=O)N4CC[C@H](O)[C@@H](F)C4)c4c3CCCC4)CC2)c1C [Example 32, 1-(4-(2,3-dimethylphenyl)piperidin-1-yl)-2-(3-((3S,4S)-3-fluoro-4-hydroxypiperidine-1-carbonyl)-4,5,6,7-tetrahydro-1H-indazol-1-yl) ethanone] |
| 0.9 | 328 | Cc1cccc(C2CCN(C(=O)Cn3nc(C(=O)N4CC[C@H](O)[C@@H](C)C4)c4c3C[C@H]3C[C@@H]43)CC2)c1C [Example 21, 1-[4-(2,3-dimethylphenyl)piperidin-1-yl]-2-{(3bR,4aR)-3-[(3S,4S)-4-hydroxy-3-methylpiperidine-1-carbonyl]-3b,4,4a,5-tetrahydro-1H-cyclopropa[3,4]cyclopenta[1,2-c]pyrazol-1-yl}ethan-1-one] |
